According to ChEMBL document CHEMBL1123336, “Selective monoamine oxidase inhibitors. 3. Cyclic compounds related to 4-aminophenethylamine. Preparation and neuron-selective action of some 5-(2-aminoethyl)-2,3-dihydroindoles” (J Med Chem, 1986):
Values joined by “and” are separate entries in the source; they are usually repeats but may differ in a detail not shown here. Identical values can stand only once.

Assays:
Rattus norvegicus [1] = organism: Rattus norvegicus; experiment: The lowest dose that release NE causing reversal of ptosis in rat; format: functional
Rattus norvegicus [2] = organism: Rattus norvegicus; experiment: The lowest dose that release DA causing increased motor activity in rat; format: functional
Rattus norvegicus [3] = organism: Rattus norvegicus; experiment: The lowest dose that release 5-HT causing a serotonin syndrome in rat; format: functional
Monoamine oxidase [4] = target: T1, Monoamine oxidase (Rattus norvegicus, UniProt P19643+P21396); experiment: Compound was tested in vitro for inhibition of MAO by using [14C]5-HT as substrate in rat brain mitochondrial preparation; format: tissue-based
T1 sequence (P19643 whole entry): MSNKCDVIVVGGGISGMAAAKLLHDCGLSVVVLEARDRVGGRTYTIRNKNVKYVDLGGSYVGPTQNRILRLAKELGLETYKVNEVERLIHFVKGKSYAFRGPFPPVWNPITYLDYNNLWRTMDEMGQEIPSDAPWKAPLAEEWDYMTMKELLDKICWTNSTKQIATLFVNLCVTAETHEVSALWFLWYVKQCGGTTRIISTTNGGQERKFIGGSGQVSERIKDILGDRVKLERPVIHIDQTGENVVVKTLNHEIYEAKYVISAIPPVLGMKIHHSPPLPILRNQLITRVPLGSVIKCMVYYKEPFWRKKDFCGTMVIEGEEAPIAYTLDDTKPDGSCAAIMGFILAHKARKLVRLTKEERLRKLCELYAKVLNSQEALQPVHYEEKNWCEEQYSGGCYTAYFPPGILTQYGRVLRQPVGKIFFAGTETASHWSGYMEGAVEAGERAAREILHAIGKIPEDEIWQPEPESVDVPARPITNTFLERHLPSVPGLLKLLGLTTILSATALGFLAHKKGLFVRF
T1 sequence (P21396 whole entry): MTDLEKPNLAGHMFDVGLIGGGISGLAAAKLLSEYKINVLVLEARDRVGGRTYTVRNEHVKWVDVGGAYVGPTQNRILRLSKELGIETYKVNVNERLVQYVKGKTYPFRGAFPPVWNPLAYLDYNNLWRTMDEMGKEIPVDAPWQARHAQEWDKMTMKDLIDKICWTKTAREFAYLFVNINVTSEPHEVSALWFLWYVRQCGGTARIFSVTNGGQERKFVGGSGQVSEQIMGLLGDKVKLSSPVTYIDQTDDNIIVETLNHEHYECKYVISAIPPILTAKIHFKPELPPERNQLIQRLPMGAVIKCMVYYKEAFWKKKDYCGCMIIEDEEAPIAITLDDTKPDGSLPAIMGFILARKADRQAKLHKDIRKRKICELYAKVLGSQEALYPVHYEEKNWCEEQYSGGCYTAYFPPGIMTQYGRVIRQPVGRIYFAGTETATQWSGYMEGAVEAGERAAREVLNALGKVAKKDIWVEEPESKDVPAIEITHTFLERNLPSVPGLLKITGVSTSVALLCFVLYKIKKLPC

Rattus norvegicus [5] = experiment: Compound (po) was tested in vivo for inhibition of MAO activity remaining inside (N) DA synaptosomes of rat striatum; format: functional
Rattus norvegicus [6] = experiment: Compound (po) was tested in vivo for inhibition of MAO activity remaining inside (N) 5-HT synaptosomes of rat hypothalamus.; format: functional
Monoamine oxidase [7] = target: T1, Monoamine oxidase; experiment: Compound was tested in vitro for inhibition of MAO by using [14C]phenylethylamine as substrate in rat brain mitochondrial preparation; format: tissue-based
Rattus norvegicus [8] = experiment: (§1) Compound (po) was tested in vivo for inhibition of MAO activity remaining outside (EN) DA synaptosomes of rat striatum; format: functional
[9] = target: Sodium-dependent dopamine transporter (Rattus norvegicus, UniProt P23977); experiment: In […] inhibition of DA uptake at dopamine uptake site; format: functional
Chain of Sodium-dependent dopamine transporter (P23977 whole entry): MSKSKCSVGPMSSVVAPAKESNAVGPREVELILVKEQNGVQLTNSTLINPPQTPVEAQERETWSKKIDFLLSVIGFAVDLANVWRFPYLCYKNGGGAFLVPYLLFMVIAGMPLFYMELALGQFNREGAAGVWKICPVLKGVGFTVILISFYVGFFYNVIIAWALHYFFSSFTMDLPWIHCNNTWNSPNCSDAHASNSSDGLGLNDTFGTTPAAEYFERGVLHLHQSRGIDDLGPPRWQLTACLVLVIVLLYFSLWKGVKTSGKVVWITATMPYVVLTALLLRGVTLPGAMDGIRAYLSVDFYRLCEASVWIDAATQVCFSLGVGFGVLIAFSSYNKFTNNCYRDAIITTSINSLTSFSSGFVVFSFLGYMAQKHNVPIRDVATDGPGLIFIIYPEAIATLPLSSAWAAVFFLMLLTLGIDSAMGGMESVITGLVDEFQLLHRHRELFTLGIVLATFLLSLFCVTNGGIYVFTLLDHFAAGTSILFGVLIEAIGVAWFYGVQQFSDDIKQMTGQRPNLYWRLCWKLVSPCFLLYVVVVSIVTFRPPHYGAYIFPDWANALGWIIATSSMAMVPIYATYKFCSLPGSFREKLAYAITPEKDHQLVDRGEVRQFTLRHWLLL

[10] = Ratio of the inhibition of MAO using [14C]-PEA and [14C]5-HT in rat brain; format: tissue-based
Rattus norvegicus [11] = experiment: Compound (po) was tested in vivo for inhibition of MAO activity remaining inside (N) NE synaptosomes of rat hypothalamus; format: functional
[12] = target: Sodium-dependent serotonin transporter (Rattus norvegicus, UniProt P31652); experiment: Compound was tested in vitro for inhibition of Serotonin transporter uptake at serotonin uptake site
Chain of Sodium-dependent serotonin transporter (P31652 whole entry): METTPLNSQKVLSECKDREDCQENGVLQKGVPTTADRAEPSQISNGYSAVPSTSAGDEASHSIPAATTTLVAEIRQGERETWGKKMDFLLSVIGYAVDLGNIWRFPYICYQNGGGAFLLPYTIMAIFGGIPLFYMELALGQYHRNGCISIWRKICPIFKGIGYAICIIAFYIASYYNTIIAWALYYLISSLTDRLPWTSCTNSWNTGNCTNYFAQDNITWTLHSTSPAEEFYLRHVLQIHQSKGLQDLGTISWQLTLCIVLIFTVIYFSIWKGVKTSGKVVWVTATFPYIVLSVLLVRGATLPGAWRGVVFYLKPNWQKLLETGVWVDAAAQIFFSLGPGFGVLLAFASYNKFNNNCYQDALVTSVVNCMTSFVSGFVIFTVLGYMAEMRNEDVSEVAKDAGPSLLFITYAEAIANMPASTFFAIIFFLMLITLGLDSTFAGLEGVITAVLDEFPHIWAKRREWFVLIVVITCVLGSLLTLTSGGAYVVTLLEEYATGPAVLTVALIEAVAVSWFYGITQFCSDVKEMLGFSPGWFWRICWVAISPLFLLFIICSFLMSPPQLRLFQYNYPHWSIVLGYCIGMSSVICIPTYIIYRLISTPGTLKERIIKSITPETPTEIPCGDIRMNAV

[13] = target: Norepinephrine transporter (Rattus norvegicus, UniProt Q9WTR4); experiment: In vitro inhibition of NE uptake at NE uptake site; format: functional
Chain of Norepinephrine transporter (Q9WTR4 whole entry): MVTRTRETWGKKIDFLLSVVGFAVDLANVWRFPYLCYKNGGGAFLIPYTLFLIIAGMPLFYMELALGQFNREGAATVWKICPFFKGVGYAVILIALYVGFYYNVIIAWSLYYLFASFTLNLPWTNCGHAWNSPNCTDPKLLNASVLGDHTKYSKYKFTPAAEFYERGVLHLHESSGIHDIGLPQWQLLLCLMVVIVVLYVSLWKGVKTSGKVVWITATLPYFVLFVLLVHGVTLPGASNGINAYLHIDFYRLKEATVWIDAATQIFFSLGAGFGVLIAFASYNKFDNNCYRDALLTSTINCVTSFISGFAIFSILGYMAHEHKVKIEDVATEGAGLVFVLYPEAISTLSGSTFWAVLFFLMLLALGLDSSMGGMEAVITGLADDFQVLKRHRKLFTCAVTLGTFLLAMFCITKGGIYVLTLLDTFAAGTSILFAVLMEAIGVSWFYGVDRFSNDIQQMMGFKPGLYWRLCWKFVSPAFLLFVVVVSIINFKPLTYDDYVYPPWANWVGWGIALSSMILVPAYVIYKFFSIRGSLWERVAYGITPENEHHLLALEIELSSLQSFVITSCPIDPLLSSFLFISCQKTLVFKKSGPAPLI

[14] = Ratio of inhibition of MAO activity remaining outside (EN) and inside (N) synaptosomes; format: subcellular; details: Brain
Rattus norvegicus [15] = experiment: Compound (po) was tested in vivo for inhibition of MAO activity remaining outside (EN) 5-HT synaptosomes of rat hypothalamus.; format: functional
[16] = as §1; format: functional
Rattus norvegicus [17] = experiment: Compound (po) was tested in vivo for inhibition of Monoamino oxidase activity remaining inside (N) 5-HT synaptosomes of rat hypothalamus.; format: functional
Monoamine oxidase [18] = target: T1, Monoamine oxidase; experiment: Compound was tested in vitro for inhibition of Monoamino oxidase by using [14C]phenylethylamine as substrate in rat brain mitochondrial preparation; format: tissue-based
Monoamine oxidase [19] = target: T1, Monoamine oxidase; experiment: Compound was tested in vitro for inhibition of Monoamino oxidase by using [14C]5-HT as substrate in rat brain mitochondrial preparation; format: tissue-based

SMILES	ED50 (Rattus norvegicus [1]) [µmol/kg]	ED50 (Rattus norvegicus [2]) [µmol/kg]	ED50 (Rattus norvegicus [3]) [µmol/kg]	IC50 (Monoamine oxidase [4]) [µM]	ED50 (Rattus norvegicus [5]) [µmol/kg]	ED50 (Rattus norvegicus [6]) [µmol/kg]	IC50 (Monoamine oxidase [7]) [µM]	ED50 (Rattus norvegicus [8]) [µmol/kg]	IC50 [9] [µM]	Ratio [10]	ED50 (Rattus norvegicus [11]) [µmol/kg]	IC50 [12] [µM]	IC50 [13] [µM]	Ratio [14]	ED50 (Rattus norvegicus [15]) [µmol/kg]	ED50 [16] [µmol/kg]	ED50 (Rattus norvegicus [17]) [µmol/kg]	IC50 (Monoamine oxidase [18]) [µM]	IC50 (Monoamine oxidase [19]) [µM]
CC(N)Cc1ccc2c(c1Cl)CCN2 (configuration not stated)	59	> 59	59	0.2	2.2	1.5	800	4.1	> 10	4000	1.6	0.34	0.32	–	–	–	–	–	–
Cc1cc2c(cc1CC(C)N)CCN2 (configuration not stated)	> 61	> 61	> 61	13	> 61	> 61	170	> 61	6	13	49	> 16	6	> 1	–	–	–	–	–
CCC(N)Cc1ccc2c(c1Cl)CCN2 (configuration not stated)	> 112	> 112	28	–	12	9.1	–	28	> 10	–	11	0.3	1.6	2 (2×) and 2.3	–	–	–	–	–
CCN1CCc2cc(CC(C)N)c(C)cc21 (configuration not stated)	87	> 87	> 87	0.33	12	> 27	77	–	> 10	233	17	2.2	2.5	> 3 and 1.4	> 27	17	–	–	–
Cc1c(CC(C)N)ccc2c1CCN2 (configuration not stated)	128	> 128	64	0.8	4.6	0.8	> 500	13	9	> 625	1.1	0.38	0.75	–	–	–	–	–	–
CC(N)Cc1ccc2c(c1)CCN2 (configuration not stated)	17	42	42	5	0.8	1.8	> 100	20	3.8	> 20	1.1	1.8	0.36	> 15 and > 31 and 25	–	–	–	–	–
CCC(N)Cc1ccc2c(c1)CCN2 (configuration not stated)	128	> 256	64	–	26	–	–	74	10	57	32	3.6	0.5	–	–	–	11	800	14
CC(C)(N)Cc1ccc2c(c1)CCN2	64	> 256	128	2.8	8	4.4	2600	36	> 10	929	12	1.9	2.7	–	–	–	–	–	–
Cc1cc(N(C)C)ccc1CC(C)N (configuration not stated)	15	> 300	7.5	0.8	3.3	1.1	> 1000	4.4	> 10	> 1250	2	0.1	0.65	–	–	–	–	–	–
CCN1CCc2c1ccc(CC(C)N)c2C (configuration not stated)	> 87	> 87	87	1.1	10	13	> 500	16	> 10	> 455	9	1.5	7.5	–	–	–	–	–	–
